Source: US20250129329A1, “CULTURE MEDIUM FOR HEPATOMA ORGANOID CULTURE, HEPATOMA ORGANOID CULTURE METHOD, AND APPLICATION THEREOF” (PRECEDO PHARMACEUTICALS CO., LTD, priority 2021, published 2025)

Assays:
Type in all cases: cell-based, human
[1] = test system: hepatoma organoids (sample GL-006); assay: Drug screening on hepatoma organoids, CellTiter-Glo viability and microscopy (Example 5); conditions: for growth of organoids after drug treatment (photos): after 5 days of drug treatment, microscope photos, FIG. 5A; for inhibitory effect on the growth of hepatoma organoids (drug inhibition rate): two concentrations (1 and 0.1 mM stocks diluted 1000 times), 5 days, CellTiter-Glo, FIG. 5B
Protocol: Primary liver cancer cells were isolated from liver cancer intraoperative sample (GL-006) according to the method described in Section (2), Example 1, and were cultured to obtain organoids by using HC-3 culture medium until the diameters of hepatoma organoids exceeded 50 μm, which were then used for drug screening.
Prepare Three drugs with two concentration gradients were prepared according to the table below (Bortezomib, Aclarubicin, and Doxorubicin; all purchased from MCE) and store for use.
The prepared drugs were taken out and placed at room temperature. The drugs were diluted 1000 times with HC-3 culture medium for later use. The organoids cultured and obtained according to step (1) were taken out from the incubator, the culture mediums were removed from the wells, and the culture mediums containing drugs were slowly added into the wells along the well wall. After the addition of drug, disinfect the surface of the 96-well plate was sterilized and then was transferred to the incubator for further cultivation. After 5 days, the viability of organoids were measured.
CellTiter-Glo luminescent reagent (purchased from Promega) was taken out from a 4° C. refrigerator, and 10 mL of the reagent was added into the loading slot; the 96-well plate for testing was taken out from the incubator, and 20 μL CellTiter-Glo luminescent reagent was added into each well. After standing for 10 minutes followed by mixing well, the test was conducted by using a multi-functional microplate reader (Envision, Perkin Elmer).

[2] = test system: hepatoma organoids isolated from liver cancer tissue; assay: Effects of medium additives on proliferation of hepatoma organoids (Example 1); conditions: additive in basic medium at the final concentration; organoid diameters after 7 days compared with Basic Medium
Protocol: First, a basic medium containing initial medium was prepared. […] In this embodiment, the formulation of the basic medium is: DMEM/F12 medium (purchased from Corning)+100 μg/mL Primocin (purchased from InvivoGen, 0.2% (v/v), commercial product has a concentration of 50 mg/ml).
Different types of additives (see Table 1) were added to the basic medium to prepare culture mediums for hepatoma organoid with different components.
Tissue samples (intraoperative) of liver cancer solid tumor were obtained from patients by professional medical practitioner of professional medical institutions, and all patients have signed the informed consent. Intraoperative samples having the size of 0.25 cm3 were stored and transported using commercial tissue preservation solution (manufacturer: Miltenyi Biotec).
• 3.1. Tissue samples were transferred from the ultra-clean workbench to a culture dish, and the tissue with blood was removed. The tissue samples were rinsed twice with basic medium, and then were transferred to another culture dish and mechanically cut with a sterile scalpel into tissue blocks of 1×1×1 mm3 in size. • 3.2. The cut intraoperative tissues were aspirated into a 15 mL centrifuge tube, to which 5 mL of basic medium was added, fully mixed, and then centrifuged at 1500 rpm for 4 minutes. • 3.3. The supernatant was discarded, and the resultant was added with 1:3 mixture of basic medium and tissue digestion solution (the amount of tissue digestion solution added was about 10 mL tissue digestion solution for 1 g of tumor tissue). The samples were marked with names and numbers, sealed with sealing film, and then digested in a shaker (Zhichu Instrument ZQLY-180N) at 37° C., 300 rpm. The completion of digestion was determined via observation every 30 minutes, based on the existing of visible particles or not. • 3.4. After the digestion was completed, undigested tissue mass was filtered out through a […] filter mash. The tissue mass on the filter mash was rinsed into the centrifuge tube with basic medium to reduce cell loss. The resultant was centrifuged at 25° C., 1500 rpm for 4 minutes. • 3.5. […] If there were blood cells, 8 mL blood cell lysate (purchased from Sigma) was added in the resultant and fully mixed, lysed at 4° C. for 20 minutes, with inverting and mixing once during the process. The resultant was centrifuged at 25° C., 1500 rpm for 4 minutes. • 3.6. The supernatant was discarded and 2 mL basic medium was added to resuspend the cells for reserve.
• 4.1 Microscopic observation: a small amount of resuspended cells were plated in a culture dish, and the density and morphology of cancer cells were observed under a microscope (CNOPTEC, BDS400); • 4.2 Viable cell counting: 12 μL of the resuspended cell suspension was fully mixed with 12 μL of trypan blue staining solution (Manufacturer: Sangon Biotech (Shanghai) Co., Ltd.), and then 20 μL of the mixture was added into a cell counting plate (Manufacturer: Countstar, specifications: 50 pieces/box).
The primary liver cancer cells obtained in the above steps were resuspended with pre-cooled DMEM/F12 and counted. The cell density was diluted to 5-10×10^6 cells/mL and 400 μL of the diluted cell suspension was added with an equal volume of Matrigel matrix gel (Corning) and mixed gently and well. Then, the mixture was inoculated at 5 μL/well onto a 96-well plate. The inoculated plate was placed into an incubator for 30 minutes until Matrigel is completely coagulated. Then, the culture mediums as shown in Table 1 that have been come to room temperature in advance were added, respectively, and the culture mediums were renewed every three days for expansion and cultivation. After 7 days, the cultured organoids were photographed and the diameters of the organoids were measured and compiled, so as to compare the promoting effects of various factors on the proliferation of hepatoma organoids. As the experimental control, the basic medium without any additives was used.

[3] = test system: hepatoma organoids (samples GL-003, GL-004); assay: Effects of different concentrations of factors in the culture medium on proliferation of hepatoma organoids (Example 2); conditions: added to HC-3 medium lacking that factor; organoid diameter ratio to Blank Control after 10 days, FIGS. 1A-1K
Protocol: Primary liver cancer cells were obtained from intraoperative tissue samples (Nos. GL-003, GL-004) in accordance with the method described in Section (2), Example 1, and the organoids were cultured using the culture medium formulations as shown in Table 2 below.
When using the culture medium of Formulation 1, to a 96-well plate inoculated with organoids was added the prepared B27 in addition to the medium of Formulation 1, with 200 μL per well, such that the final concentrations of B27 were 1:25, 1:50 and 1:100, respectively; a well of Blank Control (BC) was set using the medium of Formulation 1. The final concentrations of other factors added in this series of culture mediums were the same as those in HC-3 culture medium. The experiments of Formulations 1-11 below were also conducted in the same way and will not be described in details.
(§1) When using the culture medium of Formulation 2, to a 96-well plate inoculated with organoids was added the prepared HGF in addition to the medium of Formulation 2, with 200 μL per well, such that the final concentrations of HGF were 1 ng/ml, 5 ng/mL and 25 ng/mL, respectively; a well of Blank Control (BC) was set using the medium of Formulation 2.
as §1, with “3,” for “2,”, “ITS cell culture additive” for “HGF”, “1:300, 1:100” for “1 ng/ml, 5 ng/mL”, “1:30,” for “25 ng/mL,”, “3.” for “2.”
as §1, with “4,” for “2,”, “Y27632” for “HGF”, “3 μM, 10 μM” for “1 ng/ml, 5 ng/mL”, “30 μM,” for “25 ng/mL,”, “4.” for “2.”
as §1, with “6,” for “2,”, “NRG1” for “HGF”, “ng/ml” for “ng/mL”, “ng/ml,” for “ng/mL,”, “6.” for “2.”
as §1, with “7,” for “2,”, “insulin” for “HGF”, “µL” for “μL”, “μg/mL, 3 μg/mL” for “ng/ml, 5 ng/mL”, “10 μg/mL,” for “25 ng/mL,”, “7.” for “2.”
as §1, with “8,” for “2,”, “EGF” for “HGF”, “2” for “1”, “6 ng/ml” for “5 ng/mL”, “18 ng/ml,” for “25 ng/mL,”, “8.” for “2.”
as §1, with “9,” for “2,”, “GlutaMAX” for “HGF”, “1:300, 1:100” for “1 ng/ml, 5 ng/mL”, “1:30,” for “25 ng/mL,”, “9. […]” for “2.”

Molecule	growth of organoids after drug treatment (photos) [1]	inhibitory effect on the growth of hepatoma organoids (drug inhibition rate) [1]	Level of promoting proliferation [2]	preferable amount in the culture medium for promoting organoid proliferation [3]
CC[C@@]1(O)C[C@H](O[C@H]2C[C@H](N(C)C)[C@H](O[C@H]3C[C@H](O)[C@H](O[C@H]4CCC(=O)[C@H](C)O4)[C@H](C)O3)[C@H](C)O2)c2c(cc3c(c2O)C(=O)c2c(O)cccc2C3=O)[C@H]1C(=O)OC [Aclarubicin]	significantly inhibited	varied significantly		
CC(C)C[C@H](NC(=O)[C@H](Cc1ccccc1)NC(=O)c1cnccn1)B(O)O [Bortezomib]	significantly inhibited	strong inhibitory effects		
Cc1c[nH]c(-c2cnc(NCCNc3ccc(C#N)cn3)nc2-c2ccc(Cl)cc2Cl)n1 [CHIR99021]			−	
CN1C(=O)C(c2c(F)cccc2F)N(C)c2nc(Nc3ccc(S(N)(=O)=O)cc3)ncc21 (stereo not shown) [Compound 1, 4-((7-(2,6-Difluorophenyl)-5,8-dimethyl-6-oxo-5,6,7,8-tetrahydropteridin-2-yl)amino)benzsulfamide]			+	2.5 to 10 µM
Cc1cccc(-c2nn(C(=S)Nc3ccccc3)cc2-c2ccnc3ccccc23)n1 [Compound A8301]			−	
C[C@@H](N)[C@H]1CC[C@H](C(=O)Nc2ccncc2)CC1 [Compound Y27632]			+	3 to 30 µM
COc1cccc2c1C(=O)c1c(O)c3c(c(O)c1C2=O)C[C@@](O)(C(=O)CO)C[C@@H]3O[C@H]1C[C@H](N)[C@H](O)[C@H](C)O1 [Doxorubicin]		no inhibitory effect		
Oc1ccc(-c2nc(-c3ccncc3)c(-c3ccc(F)cc3)[nH]2)cc1 [SB202190]			−	
C[C@@H]1C[C@H]2[C@@H]3CCC4=CC(=O)C=C[C@]4(C)[C@@]3(F)[C@@H](O)C[C@]2(C)[C@@]1(O)C(=O)CO [dexamethasone]				0.1 to 1 µM
basic fibroblast growth factor, bFGF: growth factor medium additive, supplier R&D			−	
epidermal growth factor, EGF: growth factor medium additive, supplier R&D (NSDSECPLSHDGYCLHDGVCMYIEALDKYACNCVVGYIGERCQYRDLKWWELR; Epidermal growth factor; UniProt P01133 971-1023, looked up)			+	2 to 18 ng/mL
hepatocyte growth factor, HGF: growth factor medium additive, supplier R&D			+	
insulin: medium additive, supplier Peprotech			+	1000 to 10000 ng/mL
